Results as given in patent US8143265B2, “Method of treating atherosclerosis” (Meharry Medical College, priority 2007, dated 2012).

Assays:
[1] = system: mouse peritoneal macrophages; assay: E−/B48 lipoprotein-induced foam cell formation, confocal microscopy of DiI and LysoTracker staining; format: cell-based; settings: MPMs, 20 μg/ml DiI-labeled E−/B48 lipoproteins plus 2 mM 2-AP, 48 hrs
Experimental: FIG. 2. Mouse peritoneal macrophages were treated with 20 μg/ml DiI-labeled E^−/B48 lipoproteins, 20 μg/ml E^−/B48 lipoproteins plus 2 mM 2-AP, or culture medium alone (control) for 48 hrs. The cells were then stained with LysoTracker, which is used to localize lysosomes. Confocal microscopy images were captured, and the merged images are an overlay of the differential interference contrast (DIC) images and the fluorescence images of intracellular DiI and LysoTracker staining. Co-localization of DiI and LysoTracker staining indicates lipoprotein accumulation in the lysosomes. 2. Inhibition of eIF-2α phosphorylation by 2-AP represses E^−/B48 lipoprotein-induced foam cell formation in vitro. We previously reported that incubation of mouse peritonea macrophages (MPMs) with E^−/B48 lipoproteins induces lipid droplet accumulation in the cytoplasm. In some cells, E^−/B48 lipoproteins caused the cytoplasm to be almost entirely accumulated lipids, giving these cells a foam cell like appearance^12. In the present study, we used a confocal microscopy to localize the accumulated lipids in MPMs and to assess the effect of 2-AP on this localization.

mRNA translation = assay: E−/B48 lipoprotein-induced suppression of mRNA translation; format: cell-based; settings: data not shown
From the text: 6. Inhibition of eIF-2α phosphorylation attenuates E^−/B48 lipoprotein-induced suppression on mRNA translation. We observed that E^−/B48 lipoproteins reduced lysosomal hydrolases, due mainly to suppressing the translation of mRNAs encoding these proteins, and that 2-AP attenuated the suppressive effect of E^−/B48 lipoproteins on mRNA translation (data not shown).

eIF-2α phosphorylation = assay: E−/B48 lipoprotein-induced eIF2α phosphorylation in MPMs; format: cell-based, mouse; settings: addition to culture medium or transfection, data not shown
From the text: 3. ApoE-deficient lipoproteins induce eIF-2α phosphorylation. […] We also observed that addition of 2-AP to culture medium or transfection of a nonphosphorylatable eIF2α mutant to MPMs attenuated E^−/B48 lipoprotein-induced eIF2α phosphorylation (not shown).

[2] = system: mouse peritoneal macrophages; assay: E−/B48 lipoprotein degradation and lipoprotein and cholesterol ester accumulation in MPMs; format: cell-based; settings: addition to culture medium or transfection, data not shown
From the text: 4. Inhibition of eIF-2α phosphorylation increases macrophage lipoprotein degradation, and suppresses cholesterol ester and lipoprotein accumulation in macrophages. We observed that E^−/B48 lipoproteins induced a time-related accumulation of cholesterol ester and lipoproteins in MPMs, which is associated with a reduced degradation rate of E^−/B48 lipoproteins. The addition of 2-AP to culture medium or transfection of a nonphosphorylatable eIF-2α mutant to MPMs enhances E^−/B48 lipoprotein degradation, and reduces E^−/B48 lipoprotein and cholesterol ester accumulation (data not shown).

[3] = system: lysosomal hydrolases, including cathepsin B and lysosomal acid lipase; assay: E−/B48 lipoprotein-induced suppression of lysosomal hydrolases in MPMs; format: cell-based, mouse; settings: data not shown
From the text: 5. Inhibition of eIF-2α phosphorylation attenuates E^−/B48 lipoprotein-induced suppressive effect on lysosomal hydrolases. […] We also observed that 2-AP and the nonphosphorylatable eIF-2α mutant attenuated the suppressive effect of E^−/B48 lipoproteins on lysosomal hydrolases (data not shown). It is highly likely that E^−/B48 lipoprotein-induced eIF-2α phosphorylation down-regulates macrophage lysosomal hydrolases, which in turn reduces the degradation of the lipid and protein components of E^−/B48 lipoproteins, leading to lipoprotein accumulation in the lysosomes and triggering foam cell formation.

ApoE−/− mice = assay: Atherosclerosis development in ApoE−/− mice with oral feeding of 2-AP; format: in vivo, mouse
Experimental: FIG. 1. ApoE^−/− mice at 5 weeks of age were treated with 200 mg/kg BW of 2-AP or equal volume of water as control via gavage feeding. This procedure was repeated once every other day for […]. A. Heart-aorta samples were collected from mice at 6 months of age (n=12 for each group of mice). Sequential 8-μm thick sections were cut from the mouse aortic root. The area (μm^2) of atherosclerotic lesions in the section was measured. B. Aortas from the aortic root to the iliac bifurcation were collected, and the area of atherosclerotic lesions and the total area of the aortic surface were measured, data are expressed as the percent of aortic surface area covered by atherosclerotic lesions. Data are expressed as the mean±SEM. *P<0.05 as compared to untreated control mice. 1. Inhibition of eIF-2α phosphorylation by 2-AP delays the development of atherosclerosis in ApoE^−/− mice: We find that oral feeding of 2-AP reduces the mean size of atherosclerotic lesions in the aorta root and the aorta tree by about 45% and 37%, respectively. […] These findings provide evidence that development of atherosclerosis in ApoE^−/− mice is associated with an increased eIF-2α phosphorylation and that inhibition of eIF-2α phosphorylation via in vivo treatment with 2-AP delays the development of atherosclerosis.

[4] = ApoE−/− mice, 200 mg/kg BW 2-AP by gavage once every other day for 24 weeks, vs untreated control
[5] = ApoE−/− mice, 200 mg/kg BW once every other day for 24 weeks, 6-hr fasting

For `Nc1ncc2[nH]cnc2n1` [2-AP, 7H-purin-2-amine], the “level of staining with DiI (intralysosomal lipid accumulation)” value [1] was “markedly reduced”, the “suppressive effect of E−/B48 lipoproteins on mRNA translation” value (mRNA translation) was “attenuated” and the “E−/B48 lipoprotein-induced eIF2α phosphorylation” value (eIF-2α phosphorylation) was “attenuated”. The “E−/B48 lipoprotein accumulation” value [2] was “reduces”, the “E−/B48 lipoprotein degradation” value [2] was “enhances” and the cholesterol ester accumulation [2] was “reduces”. The “suppressive effect of E−/B48 lipoproteins on lysosomal hydrolases” value [3] was “attenuated”, the body weight (ApoE−/− mice; 2-AP treatment of ApoE−/− mice) was “did not alter” and the food intake (ApoE−/− mice; 2-AP treatment of ApoE−/− mice) was “did not alter”. For the same compound, the “advanced lesions (e.g., fibrous caps and acellular areas)” value (ApoE−/− mice; 2-AP-treated ApoE−/− mice) was “reduced markedly”, the “reduction of mean size of atherosclerotic lesions in the aorta root” value (ApoE−/− mice; [4]) was “about 45%” and the “reduction of mean size of atherosclerotic lesions in the aorta tree” value (ApoE−/− mice; [4]) was roughly 37%. For the same compound, the plasma glucose levels (ApoE−/− mice; [5]) was “did not alter”, the plasma insulin levels (ApoE−/− mice; [5]) was “did not alter” and the plasma lipid levels (ApoE−/− mice; [5]) was “did not alter”. The “phosphorylated eIF-2α immunostaining in the atherosclerotic lesions” value (ApoE−/− mice; immunohistology, 2-AP-treated vs untreated ApoE−/− mice) was “significantly reduced”.
